# Starred links: 1 amine or outer side, 2 acyl side, 3 side chain; linkers in the order of their positions; H or OH if unused. Positions of bridges follow the written chain, without caps; N, C: chain ends. Non-standard residues stand in square brackets, D forms with d. Residues, ends and D or L forms follow the SMILES beside them. *: point of attachment. hPhe(3-Cl-4-CF3) = N[C@@H](CCc1ccc(C(F)(F)F)c(Cl)c1)C(=O)O; hPhe(3-F,4-CF3) = N[C@@H](CCc1ccc(C(F)(F)F)c(F)c1)C(=O)O; hPhe(4-CF3) = N[C@@H](CCc1ccc(C(F)(F)F)cc1)C(=O)O; Phe(2-CF3) = N[C@@H](Cc1ccccc1C(F)(F)F)C(=O)O; Thiomorpholino(1,1-dioxo) = O=S1(=O)CCN(*)CC1; NMe3Pal(6-Me) = CN[C@@H](Cc1ccc(C)nc1)C(=O)O; NMePhe(4-Cl) = CN[C@@H](Cc1ccc(Cl)cc1)C(=O)O; NMePhe(4-Me) = CN[C@@H](Cc1ccc(C)cc1)C(=O)O; NMeNle(6-CHF2) = CN[C@@H](CCCCC(F)F)C(=O)O; hPhe(4-Cl) = N[C@@H](CCc1ccc(Cl)cc1)C(=O)O; NMedβ3hAla = C[C@H](CC(=O)[*:2])N(C)[*:1]; NMeGly(cPent) = CN[C@H](C(=O)O)C1CCCC1; Phe(3-I) = N[C@@H](Cc1cccc(I)c1)C(=O)O; NMeCha = CN[C@@H](CC1CCCCC1)C(=O)O; Azetidine(3,3-F2) = FC1(F)CN(*)C1; N(isopentyl)Gly = CC(C)CCNCC(=O)O; NMeChg = CN[C@H](C(=O)O)C1CCCCC1; NMeF = CN[C@@H](Cc1ccccc1)C(=O)O; N(CH2CH2)2CF2 = FC1(F)CCN(*)CC1; NMeD = CN[C@@H](CC(=O)O)C(=O)O; NMeL = CN[C@@H](CC(C)C)C(=O)O; NMeV = CN[C@H](C(=O)O)C(C)C; d(β3hA) = C[C@@H](N)CC(=O)O; NMeA = CN[C@@H](C)C(=O)O; NMeAib = CNC(C)(C)C(=O)O; Piperidide = C1CCN(*)CC1; Pyrrolidide = C1CCN(*)C1; Ac5c = NC1(C(=O)O)CCCC1; Aze = O=C(O)[C@@H]1CCN1; Thp = NC1(C(=O)O)CCOCC1; Isopentyl = CC(C)CC*; Sar = CNCC(=O)O
# Biological target: T1, Kras and SOS1 (biotin-tagged human Kras loaded with GDP, His-tagged human SOS1) (Homo sapiens, UniProt P01116, G12D)
# T1 construct: made in house; host or cells: E. coli (stated for Kras only)
# T1 sequence (P01116 1-188 isoform P01116-2 G12D): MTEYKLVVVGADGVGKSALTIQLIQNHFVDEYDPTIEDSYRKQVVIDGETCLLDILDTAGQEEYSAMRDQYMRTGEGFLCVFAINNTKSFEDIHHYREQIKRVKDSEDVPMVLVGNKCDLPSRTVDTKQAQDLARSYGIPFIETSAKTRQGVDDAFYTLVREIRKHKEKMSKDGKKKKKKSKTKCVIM
# Assay: Protein-protein interaction inhibition between Kras and SOS1 (KrasGl2D-SOS PPI) using AlphaScreen
# Format: binding
# Conditions: AlphaScreen; biotin-tagged human Kras loaded with GDP, His-tagged human SOS1; read-out: KRAS G12D-SOS PPI IC50
# Outline: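 Binding between SOS1 and Kras is detected as bead-proximity luminescence: illuminate Ni-conjugated donors (680 nm), collect 520-620 nm emission from streptavidin-conjugated acceptors; Kras carries biotin and GDP loaded after purification, SOS1 carries a His tag.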
row,SMILES,IC50 [nM]
1,CC[C@H](C)[C@@H]1NC(=O)[C@H](C)N(C)C(=O)C[C@@H](C(=O)N2CCCC2)NC(=O)[C@H](CC(C)C)N(C)C(=O)[C@H](CCCCC(F)F)N(C)C(=O)[C@H](CC(C)C)NC(=O)[C@H](CCc2ccc(C(F)(F)F)cc2)NC(=O)CN(C)C(=O)[C@H](Cc2ccc(Cl)cc2)N(C)C(=O)CN(C)C(=O)CN(C)C1=O [Compound 779] ([NMeA]I[Sar][Sar][NMePhe(4-Cl)][Sar][hPhe(4-CF3)]L[NMeNle(6-CHF2)][NMeL]D-Pyrrolidide; lactam N-11),160
2,"CC[C@H](C)[C@@H]1NC(=O)[C@H](CC(C)C)N(C)C(=O)C[C@@H](C(=O)N2CCS(=O)(=O)CC2)N(C)C(=O)[C@H](C2CCCC2)N(C)C(=O)C2(CCCC2)NC(=O)[C@H](CC(=O)N2CCC(F)(F)CC2)N(C)C(=O)[C@H](CCc2ccc(C(F)(F)F)c(Cl)c2)NC(=O)CN(C)C(=O)[C@H](CC2CCCCC2)N(C)C(=O)[C@@H]2CCN2C(=O)[C@H](C)N(C)C1=O [Compound 780] ([NMeL]I[NMeA][Aze][NMeCha][Sar][hPhe(3-Cl-4-CF3)][NMeD](N(CH2CH2)2CF2)[Ac5c][NMeGly(cPent)][NMeD]-{Thiomorpholino(1,1-dioxo)}; lactam N-11)",21
3,"CC[C@H](C)[C@@H]1NC(=O)[C@H](C)N(C)C(=O)C[C@@H](C)NC(=O)[C@H](C(C)C)N(C)C(=O)[C@H](Cc2ccccc2)N(C)C(=O)[C@H](CC(C)C)N(C)C(=O)[C@H](CCc2ccc(C(F)(F)F)c(F)c2)NC(=O)CN(C)C(=O)[C@H](Cc2ccc(Cl)cc2)N(C)C(=O)[C@@H]2CCN2C(=O)CN(C)C1=O [Compound 782] (cyclo([Aze][NMePhe(4-Cl)][Sar][hPhe(3-F,4-CF3)][NMeL][NMeF][NMeV][d(β3hA)][NMeA]I[Sar]))",21
4,CC[C@H](C)[C@@H]1NC(=O)[C@H](CC(C)C)N(C)C(=O)C[C@@H](C(=O)N2CCCCC2)N(C)C(=O)[C@H](C2CCCCC2)N(C)C(=O)C2(CCCC2)NC(=O)[C@H](Cc2ccc(C)nc2)N(C)C(=O)[C@H](CCc2ccc(C(F)(F)F)c(Cl)c2)NC(=O)CN(C)C(=O)[C@H](CC2CCCCC2)N(C)C(=O)[C@@H]2CCN2C(=O)CN(C)C1=O [Compound 786] ([NMeL]I[Sar][Aze][NMeCha][Sar][hPhe(3-Cl-4-CF3)][NMe3Pal(6-Me)][Ac5c][NMeChg][NMeD]-Piperidide; lactam N-11),6
5,CC[C@H](C)[C@@H]1NC(=O)[C@H](CC(C)C)N(C)C(=O)C[C@@H](C(=O)N2CCCCC2)N(C)C(=O)[C@H](CC(C)C)NC(=O)C(C)(C)N(C)C(=O)[C@H](Cc2ccccc2C(F)(F)F)NC(=O)[C@H](Cc2cccc(I)c2)NC(=O)CN(C)C(=O)[C@H](Cc2ccc(C)cc2)N(C)C(=O)[C@@H]2CCN2C(=O)CN(C)C1=O [Compound 791] ([NMeL]I[Sar][Aze][NMePhe(4-Me)][Sar][Phe(3-I)][Phe(2-CF3)][NMeAib]L[NMeD]-Piperidide; lactam N-11),320
6,"CC[C@H](C)[C@@H]1NC(=O)[C@H](C)N(C)C(=O)C[C@@H](C(=O)N2CCCCC2)N(C)C(=O)[C@H](C(C)C)N(C)C(=O)[C@H](COC)NC(=O)[C@H](CC(=O)N2CC(F)(F)C2)N(C)C(=O)[C@H](CCc2ccc(C(F)(F)F)c(Cl)c2)NC(=O)CN(C)C(=O)[C@H](CC2CCCCC2)N(C)C(=O)CN(C)C(=O)CN(C)C1=O [Compound 793] ([NMeA]I[Sar][Sar][NMeCha][Sar][hPhe(3-Cl-4-CF3)][NMeD](Azetidine(3,3-F2))S(Me)[NMeV][NMeD]-Piperidide; lactam N-11)",24
7,CC(C)CCOC[C@@H]1NC(=O)[C@H](CC(C)C)N(C)C(=O)C[C@@H](C(=O)N2CCCCC2)N(C)C(=O)[C@H](C2CCCCC2)N(C)C(=O)C2(CCCC2)NC(=O)[C@@H]2CCCN2C(=O)[C@H](CCc2ccc(C(F)(F)F)c(Cl)c2)NC(=O)CN(C)C(=O)[C@H](CC2CCCCC2)N(C)C(=O)CN(C)C(=O)CN(C)C1=O [Compound 794] ([NMeL]S(Isopentyl)[Sar][Sar][NMeCha][Sar][hPhe(3-Cl-4-CF3)]P[Ac5c][NMeChg][NMeD]-Piperidide; lactam N-11),11
8,CC[C@H](C)[C@@H]1NC(=O)[C@H](CC(C)C)N(C)C(=O)C[C@@H](C)NC(=O)[C@H](C(C)C)N(C)C(=O)C2(CCCC2)NC(=O)[C@@H]2CCCN2C(=O)[C@H](CCc2ccc(C(F)(F)F)c(Cl)c2)NC(=O)CN(C)C(=O)[C@H](CC2CCCCC2)N(C)C(=O)CN(CCC(C)C)C(=O)CN(C)C1=O [Compound 801] (cyclo([Ac5c][NMeV][d(β3hA)][NMeL]I[Sar][N(isopentyl)Gly][NMeCha][Sar][hPhe(3-Cl-4-CF3)]P)),450
9,CC[C@H](C)[C@@H]1NC(=O)[C@H](CC(C)C)N(C)C(=O)C[C@@H](C)N(C)C(=O)[C@H](CC(C)C)N(C)C(=O)C2(CCOCC2)NC(=O)[C@@H]2CCCN2C(=O)[C@H](CCc2ccc(Cl)cc2)NC(=O)CN(C)C(=O)[C@H](CC2CCCCC2)N(C)C(=O)CN(C)C(=O)CN(C)C1=O [Compound 802] (cyclo(I[Sar][Sar][NMeCha][Sar][hPhe(4-Cl)]P[Thp][NMeL][NMedβ3hAla][NMeL])),390

# Reference: patent publication US12371454B2, “Cyclic peptide compound having Kras inhibitory action” (priority 2019, dated 2025)
